Measured values from patent publication US20050038058A1, “Novel compounds and methods for therapy” (Institute of Organic Chemistry and Biochemistry, priority 2001, published 2005).
≈ marks a conversion by molar mass, not a printed value. Where two headings read alike, the source gives them in different places.

Legend:
HIV-1(IIIB) [1] = experiment: HIV-1(IIIB)-induced cytopathicity in CEM cell cultures; assay type: cell-based
Description: (§1) Viruses. The origins of MSV, HIV type 1 (HIV-1) (strain IIIB and Ba-L), HIV-2 (strain ROD) and FIV (strain Petaluma) have been described previously (Balzarini et al., AIDS 5: 21-28, 1991; De Clercq et al., Proc. Soc. Exp. Biol. Med. 137:590-594, 1971; Egberink et al., Proc. Natl. Acad. Sci. 87:3087-3091, 1990; Hartmann et al., Antiviral Chem. Chemother. 5:13-19, 1994; Popovic et al., Science 224:497-500, 1984). HIV-1(IIIB) and HIV-2(ROD) stocks were obtained from supernatants of virus-infected MT-4 cell cultures. HIV-1BaL was expanded in human primary M/M, whose supernatants were collected, filtered and stored at −80° C. before use. Characteristics of viral stocks used for this study were 2.1×10^8 HIV-RNA genomes/ml (corresponding to 35 ng of p24 antigen) and 5,000 tissue culture infectious doses 50% per ml (TCID50/ml) as assessed by virus titration in other primary M/M cultures. The isolation and characterization of the clinical HIV-1 isolates L1S, L6S and L6S/PMEA has been reported (Thormar et al., Proc. Natl. Acad. Sci. USA 93:3283-3287, 1995; Van Laethem et al., AIDS 15:553-561, 2001). […] HIV-1/L6S/PMEA is the clinical isolate HIV-1/L6S that has been isolated after culturing the virus for 11 passages in the presence of increasing concentrations of PMEA (adefovir).
(§2) In vitro antiviral assays. The activity against HIV-1- and HIV-2-induced cytopathicity was examined in MT-4 cell cultures at day 5 post infection and based on the determination of cell viability by trypan blue dye staining or in CEM cell cultures at day 4 to 5 post infection and based on the microscopical examination of virus-induced giant cell formation. HIV-1 and HIV-2 were added at 100 CCID50 to the cell cultures.

CEM cells = experiment: Inhibition of CEM cell growth (cytostatic activity); assay type: cell-based
Procedure: (§3) Cytostatic and antimetabolic effect of acyclic nucleoside phosphonates in vitro. The assays to examine the inhibition of CEM cell growth by the test compounds have been described previously (Balzarini et al., AIDS 5:21-28, 1991). The 50% cytostatic concentration (CC50) was defined as the concentration of compound that reduced the number of living cells by 50% . To measure MT-4 cell toxicity of the test compounds, 5×10^4 MT-4 cells were incubated in the wells of 96-well microplates in the presence or absence of different concentrations of the test compounds for 5 days at 37° C. The CC50 was then calculated from the number of living cells counted under a microscope by the trypan blue exclusion method.

[2] = MT-4 cell toxicity (trypan blue exclusion); assay type: cell-based; conditions: human, MT-4 cells; reduction of cell viability; Table 2
Procedure: as §3

HIV-2(ROD) [3] = experiment: HIV-2(ROD)-induced cytopathicity in CEM cell cultures; assay type: cell-based; conditions: Human immunodeficiency virus 2, CCRF-CEM, read-out: EC50 HIV-2 (ROD) (CEM)
Description: as §1, §2

HIV-2(ROD) [4] = experiment: HIV-2(ROD)-induced cytopathicity in MT-4 cell cultures; assay type: cell-based; conditions: Human immunodeficiency virus 2, MT4, read-out: EC50 HIV-2 (ROD) (MT-4)
Description: as §1, §2

MSV [5] = experiment: MSV-induced transformation of murine embryo fibroblast C3H/3T3 cell cultures; assay type: cell-based; conditions: Mus musculus
Procedure: The inhibitory effect of the test compounds on MSV-induced transformation of murine embryo fibroblast C3H/3T3 cell cultures was examined microscopically at day 6 post infection. MSV was added at 75 focus-forming units to the cell cultures. The detailed procedures for the antiretroviral evaluations has been described in detail before (Balzarini et al., AIDS 5:21-28, 1991; Balzarini et al., Antimicrob. Agents Chemother. 37:332-338, 1993; De Clercq et al., Proc. Soc. Exp. Biol. Med. 137:590-594, 1971).

[6] = Alteration of C3H cell morphology (minimal inhibitory concentration); assay type: cell-based, murine; conditions: mouse, C3H/3T3 embryo fibroblast cells; microscopically visible alteration of cell morphology; > means no visible toxicity at the indicated concentration; read-out: CC50 C3H (minimal inhibitory concentration)
[7] = Inhibition of CEM cell growth (cytostatic activity); assay type: cell-based; conditions: human, CEM cells
Procedure: as §3

HIV-1(IIIB) [8] = experiment: HIV-1(IIIB)-induced cytopathicity in MT-4 cell cultures; assay type: cell-based; conditions: Human immunodeficiency virus 1, IIIB, MT4; Table 2
Description: as §1, §2

VZV TK + OKA = experiment: Antiviral activity, VZV TK+ OKA, Table 1a; assay type: cell-based
HSV-1 (KOS) = experiment: Antiviral activity, HSV-1 (KOS), Table 1a; assay type: cell-based
HSV-1 TK- VMW 1837 = experiment: Antiviral activity, HSV-1 TK- VMW 1837, Table 1a; assay type: cell-based
VZV TK + YS = experiment: Antiviral activity, VZV TK+ YS, Table 1a; assay type: cell-based
HSV-2 (G) = experiment: Antiviral activity, HSV-2 (G), Table 1a; assay type: cell-based
HIV-2 = experiment: Antiviral activity, HIV-2, Table 1a; assay type: cell-based
VZV TK − 07/1 = experiment: Antiviral activity, VZV TK- 07/1, Table 1a; assay type: cell-based
CMV AD-169 = experiment: Antiviral activity, CMV AD-169, Table 1a; assay type: cell-based
VZV TK − YS/R = experiment: Antiviral activity, VZV TK- YS/R, Table 1a; assay type: cell-based
MSV [9] = experiment: Antiviral activity, MSV, Table 1a; assay type: cell-based
CMV Davis = experiment: Antiviral activity, CMV Davis, Table 1a; assay type: cell-based

With Nc1nc(N)c(Br)c(OCCOCP(=O)(O)O)n1 [5-bromo-derivative of 1, 2,4-Diamino-5-bromo-6-[2-(phosphonomethoxy)ethoxy]pyrimidine] the melting point was 218 °C, the “Concentration at which active against HIV-1 in CEM cell cultures” value (HIV-1(IIIB) [1]) was 2.5 µg/mL and the “Cytotoxicity at 100 μg/mL” value (CEM cells; 100 μg/mL) was “not toxic”.
Nc1nc(O)cc(OCCOCP(=O)(O)O)n1 [Compound 4, 2-amino-4-hydroxy-6-[2-(phosphonomethoxy)ethoxy]pyrimidine] showed a CC50 at 5 days [2] of 10 ± 2.2 µg/mL (≈ 37.7 µM), an EC50 (HIV-2(ROD) [3]) of 1.4 ± 1.2 µg/mL (≈ 5.28 µM) and an EC50 (HIV-2(ROD) [4]) of 2.1 µg/mL (≈ 7.92 µM). The EC50 (MSV [5]; C3H, read-out: EC50 against MSV-induced C3H cell transformation) was 0.05 to 0.15 µg/mL (≈ 0.189 to 0.566 µM), the EC50 (MSV [5]; MSV-induced C3H cell transformation, Table 2, read-out: EC50 MSV (C3H)) was 0.08 ± 0.03 µg/mL (≈ 0.302 µM) and the Minimal concentration causing visible cell morphology alteration [6] was at least 16 µg/mL. For the same molecule, the EC50 (HIV-1(IIIB) [1]; Human immunodeficiency virus 1, CCRF-CEM, HIV-1 (IIIB) in CEM, no addition, Table 3, read-out: EC50 as such) was 1.4 ± 0.71 µg/mL (≈ 5.28 µM), the EC50 (HIV-1(IIIB) [1]; Human immunodeficiency virus 1, CCRF-CEM, HIV-1 (IIIB) in CEM, Ade 100 μM, read-out: EC50 upon addition of Ade (100 μM)) was 1.7 ± 1.2 µg/mL (≈ 6.41 µM) and the EC50 (HIV-1(IIIB) [1]; Human immunodeficiency virus 1, CCRF-CEM, HIV-1 (IIIB) in CEM, Ado 400 μM, read-out: EC50 upon addition of Ado (400 μM)) was 1.4 ± 0.93 µg/mL (≈ 5.28 µM). The EC50 (HIV-1(IIIB) [1]; Human immunodeficiency virus 1, CCRF-CEM, HIV-1 (IIIB) in CEM, Guo 10 μM, read-out: EC50 upon addition of Guo (10 μM)) was 1.9 ± 0.92 µg/mL (≈ 7.17 µM), the EC50 (HIV-1(IIIB) [1]; Human immunodeficiency virus 1, CCRF-CEM, HIV-1 (IIIB) in CEM, dCyd 1 mM, read-out: EC50 upon addition of dCyd (1 mM)) was 2.4 ± 1.9 µg/mL (≈ 9.05 µM) and the EC50 (HIV-1(IIIB) [1]; Human immunodeficiency virus 1, CCRF-CEM, HIV-1 (IIIB) in CEM, dThd 10 μM, read-out: EC50 upon addition of dThd (10 μM)) was 1 ± 0.3 µg/mL (≈ 3.77 µM). The EC50 (HIV-1(IIIB) [1]; Human immunodeficiency virus 1, CCRF-CEM, HIV-1(IIIB)-induced cytopathicity in CEM cell cultures, Table 1, read-out: EC50 HIV-1 (CEM)) was 2.2 µg/mL (≈ 8.3 µM), the EC50 (HIV-1(IIIB) [1]; Human immunodeficiency virus 1, IIIB, CCRF-CEM, giant cell formation, mean ±SD of 2 to 4 experiments, Table 2, read-out: EC50 HIV-1 (IIIB) (CEM)) was 1.4 ± 0.7 µg/mL (≈ 5.28 µM) and the CC50 ([7]; 50% cytostatic concentration, CEM cell proliferation, Table 1, read-out: CC50 (CEM)) was 2.5 µg/mL (≈ 9.43 µM). For the same molecule, the CC50 ([7]; inhibition of cell proliferation, Table 2, read-out: CC50 CEM) was 2.5 ± 0.2 µg/mL (≈ 9.43 µM), the CC50 ([7]; read-out: CC50 for CEM cells) was 2.5 µg/mL (≈ 9.43 µM) and the EC50 (HIV-1(IIIB) [8]) was 1.9 ± 0.4 µg/mL (≈ 7.17 µM).
In the case of C[C@@H](COc1cc(N)nc(N)n1)OCP(=O)(O)O [Compound 10, 2,4-diamino-6-(S)-[2-(phosphonome-thoxy)propoxy]pyrimidine], the “Antiviral Activity EC50 VZV TK + OKA” value (VZV TK + OKA) is reported as over 50 µg/mL, the “Antiviral Activity EC50 HSV-1 (KOS)” value (HSV-1 (KOS)) is reported as over 80 µg/mL and the “Antiviral Activity EC50 HSV-1 TK- VMW 1837” value (HSV-1 TK- VMW 1837) is reported as over 80 µg/mL. The “Antiviral Activity EC50 VZV TK + YS” value (VZV TK + YS) was over 50 µg/mL, the “Antiviral Activity EC50 HSV-2 (G)” value (HSV-2 (G)) was over 80 µg/mL and the “Antiviral Activity EC50 HIV-2” value (HIV-2) was 33 µg/mL. For the same molecule, the “Antiviral Activity EC50 VZV TK − 07/1” value (VZV TK − 07/1) was over 50 µg/mL, the “Antiviral Activity EC50 CMV AD-169” value (CMV AD-169) was over 50 µg/mL and the “Antiviral Activity EC50 VZV TK − YS/R” value (VZV TK − YS/R) was over 50 µg/mL. The “Antiviral Activity EC50 MSV” value (MSV [9]) was 6.1 µg/mL, the “Antiviral Activity EC50 CMV Davis” value (CMV Davis) was over 50 µg/mL and the “Antiviral Activity EC50 HIV-1” value (HIV-1) was 51 µg/mL. For the same molecule, the “EC50 HIV-1 (CEM)” value (HIV-1(IIIB) [1]; HIV-1(IIIB)-induced cytopathicity in CEM cell cultures, Table 1) was 51 µg/mL (≈ 183 µM) and the “CC50 (CEM)” value (CEM cells; 50% cytostatic concentration, CEM cell proliferation, Table 1) was over 100 µg/mL.
In the case of Nc1nc(OCCOCP(=O)(O)O)cc(OCCOCP(=O)(O)O)n1 [Example 10, 2-Amino-4,6-bis[2-(phosphonomethoxy)ethoxy]pyrimidine], the melting point is reported as 108 °C.
